In patent publication US20110124574A1, “RESTORATION OF ESTROGEN RECEPTOR-(ALPHA) ACTIVITY” (priority 2008, published 2011):
Where no end group is shown, it is not given here. The star is where a group is joined. For = O=C*

B1: recombinant Wnt-5a: recombinant Wnt-5a protein (R&D Systems) (protein, UniProt P41221 62-380, looked up)
Protein Wnt-5a: IIGAQPLCSQLAGLSQGQKKLCHLYQDHMQYIGEGAKTGIKECQYQFRHRRWNCSTVDNTSVFGRVMQIGSRETAFTYAVSAAGVVNAMSRACREGELSTCGCSRAARPKDLPRDWLWGGCGDNIDYGYRFAKEFVDARERERIHAKGSYESARILMNLHNNEAGRRTVYNLADVACKCHGVSGSCSLKTCWLQLADFRKVGDALKEKYDSAAAMRLNSRGKLVQVNSRFNSPTTQDLVYIDPSPDYCVRNESTGSLGTQGRLCNKTSEGMDGCELMCCGRGYDQFKTVQTERCHCKFHWCCYVKCKKCTEIVDQFVCK

Assays:
ERα = ERα protein expression by Western blot in stimulated MDA-MB-468 cells; type: cell-based, human; conditions: stimulation for 24 and 48 hours
Procedure: Breast cancer cells were grown in 6 well plates, and stimulated with recombinant Wnt-5a protein (rW5a), the Wnt-5a derived Foxy-5 peptide (F5), recombinant Wnt-3a protein (rW3a), or a formylated random hexapeptide (Rdm) for 24 or 48 h. Following treatment cells were lysed and subjected to SDS-PAGE, transferred to nitrocellulose membranes and blotted for ERα expression. A: MDA-MB-231 cells stimulated with recombinant Wnt-5a, Foxy-5, Wnt-3a, Rdm. B: MDA-MB-468 cells stimulated with recombinant Wnt-5a or Foxy-5. C: 4T1 cells stimulated with recombinant Wnt-5a or Foxy-5. Positive controls (Pos) were included in order to confirm the correct band size for ERα. Two different positive controls were used: T47D cell lysates known to express ERα and MDA-MB-231 cells transiently transfected with a full length ERα plasmid, resulting in extremely high ERα expression (top row, right panel, third row, right panel). […]
Cells were lysed in Triton lysis buffer (50 mM Tris (pH7.5), 1% Triton x-100, 140 mM NaCl, 0.5 mM EDTA, 0.5 MgCl2, 10 mM NaF) with the addition of fresh leupeptin (1 μg/ml), Pefabloc (2 mM), aprotinin (20 μg/ml) and Na3VO4 (4 mM). […] Scanning and densitometry was performed using a Bio-Rad (Hercules Calif.) GS-800 densitometer with Quantity One software. […]

MDA-MB-231 cells = assay: Nuclear (Hoechst) staining for apoptotic cells after tamoxifen; type: cell-based, human; conditions: MDA-MB-231, stimulation 24 and 48 hours, tamoxifen 5 μM for the last 20 hours
Procedure: MDA-MB-231 cells were grown in 6 well plates and stimulated with recombinant Wnt-5a protein (rW5a) or the Wnt-5a derived Foxy-5 peptide (F5), for 24 or 48 h. Cells were treated with tamoxifen for the final 20 h and their apoptotic responses were measured via different methods. […] Arrows highlight apoptotic cells. Bars represent […]. B: Following treatment with rW5a, F5 and tamoxifen, or tamoxifen alone, cells were lysed and subjected to SDS-PAGE, transferred to nitrocellulose membranes and blotted for cleaved caspase 3. C: Treated cells were assessed for their relative caspase 3 activity using fluorometric spectrophotometry. The graph represents 6 separate experiments. * P<0.01, ** P<0.001. D: MTT assays were also performed on MDA-MB-231 cells treated with rWnt-5a, F5 and tamoxifen, or tamoxifen alone (MDA-MB-231 and MCF-7 cells) to assess cell growth inhibition. The graph represents the average of 6 separate experiments, with standard deviation represented by error bars. ** P<0.01, *** P<0.001.
MDA-MB-231 cells were plated on cover slips and allowed to adhere. Wnt-5a (0.6 μg/ml) or Foxy-5 (100 μM) were added for 24 or 48 hours. Cells were then treated with tamoxifen (5 μM) for the last 20 hours. MCF-7 cells were used as a positive control. […] The morphology was analyzed with Nikon E800 Eclipse Microscope with 60× objective.

Molecule	ERα levels (ERα)	apoptotic cells by Hoechst staining in response to tamoxifen (MDA-MB-231 cells)
formyl-MDGCEL (For-MDGCEL; listed as Homo sapiens) [Foxy-5]	upregulated	apoptotic cells displaying altered nuclear morphology
B1	upregulated	apoptotic cells displaying altered nuclear morphology
